Measurements reported in patent US20240400615A1, “PEPTIDE HAVING ANTI-OBESITY ACTIVITY AND USES THEREOF” (CAREGEN CO., LTD., priority 2021, published 2024).

Key:
Format in all cases: cell-based
3T3-L1 adipocytes = test: Glycerol colorimetric assay, free glycerol released from adipocytes; settings: 5 μM and 50 μM peptide, 48 hours, supernatant
Experimental: (§1) First, in order to differentiate pre-adipocytes into adipocytes, pre-adipocytes and 3T3-L1 cells purchased from the American Type Culture Collection (ATCC) were cultured in DMEM including 2% fetal bovine serum (FBS). In order to differentiate 3T3-L1 cells into adipocytes, the culture was dispensed into a 12-well plate at a density of 1×10^5 cells/well, and 2 days after the time-point of achieving the confluent growth (day 0), the culture medium was replaced with DMEM medium including 10% FBS, 10 μg/mL insulin, 0.5 mM isobutylmethylxanthine (IBMX)(Sigma, USA), and 1 μM dexamethasone (Sigma. USA), and cultured. After 2 days (day 2), the culture medium was replaced with DMEM medium including 10% FBS and 10 μg/mL insulin and cultured, and 3 days thereafter (day 5), the culture medium was replaced with a medium including only 10% FBS Two days thereafter (day 7), the cells were named 3T3-L1 adipocytes and cultured under the conditions of 37° C., 5% CO2 environment. […]
Specifically, adipocytes differentiated in Preparation Example 1 were treated with the peptide of SEQ ID NO: 1 at concentrations of 5 μM and 50 μM, and treated with 20 nM of TNFα, as a positive control, followed by culturing for 48 hours. After obtaining the supernatant, the amount of glycerol was measured using a glycerol colorimetric assay kit (Cayman Chemical, USA).

ATGL = test: RT-PCR of lipolysis-related gene ATGL in adipocytes; settings: 3T3-L1 adipocytes, 5 μM and 50 μM peptide, 72 hours, GAPDH internal control
Experimental: (§2) First, in order to differentiate pre-adipocytes into adipocytes, pre-adipocytes and 3T3-L1 cells purchased from the American Type Culture Collection (ATCC) were cultured in DMEM including 2% fetal bovine serum (FBS). In order to differentiate 3T3-L1 cells into adipocytes, the culture was dispensed into a 12-well plate at a density of 1×10^5 cells/well, and 2 days after the time-point of achieving the confluent growth (day 0), the culture medium was replaced with DMEM medium including 10% FBS, 10 μg/mL insulin, 0.5 mM isobutylmethylxanthine (IBMX)(Sigma, USA), and 1 μM dexamethasone (Sigma. USA), and cultured. After 2 days (day 2), the culture medium was replaced with DMEM medium including 10% FBS and 10 μg/mL insulin and cultured, and 3 days thereafter (day 5), the culture medium was replaced with a medium including only 10% FBS Two days thereafter (day 7), the cells were named 3T3-L1 adipocytes and cultured under the conditions of 37° C., 5% CO2 environment. The adipocytes which were induced to differentiate for 10 days were used in subsequent experiments.
(§3) In adipocytes, in order to confirm whether the peptide of the present invention has the effect of activating the lipolysis-promoting cell signaling pathway. mRNA expression levels of HSL, ATGL, and perilipin1 genes associated with lipolysis promotion were examined. […]

PGC1α = test: RT-PCR of thermogenesis-related gene PGC1α in adipocytes; settings: 3T3-L1 adipocytes, 5 μM and 50 μM peptide, 72 hours, GAPDH internal control
Experimental: as §2
(§4) In order to confirm whether the peptide of the present invention has the effect of preventing or treating obesity, the levels of mRNA expression of PGC1α1, Tbx1, FGF21, and UCP1, which are thermogenesis-related genes in brown adipocytes, were examined. […]

PRDM16 = test: Western blot of thermogenesis-related protein PRDM16 in adipocytes; settings: 3T3-L1 adipocytes, 5 μM and 50 μM peptide, 24 hours
Experimental: as §1
(§5) Specifically, the adipocytes obtained in Preparation Example 1 were treated with 5 μM and 50 μM of the peptide of SEQ ID NO: 1, respectively. […] Then, the protein was quantified and subjected to Western blotting was performed using an anti-PRDM16 antibody (Cell signaling technology (CST), USA) and an anti-UCP1 antibody (Abcam, England).

UCP1 [1] = test: RT-PCR of thermogenesis-related gene UCP1 in adipocytes; settings: 3T3-L1 adipocytes, 5 μM and 50 μM peptide, 72 hours, GAPDH internal control
Experimental: as §2, §4

pHSL = test: Western blot of pHSL in adipocytes; settings: 3T3-L1 adipocytes, 5 μM and 50 μM peptide, 1 hour, Western blot with anti-pHSL antibody
Experimental: as §1
Specifically, the adipocytes differentiated in Preparation Example 1 were treated with 5 μM and 50 μM of the peptide of SEQ ID NO: 1, and after 1 hour, the cells were recovered and treated with a cell lysis buffer to obtain a lysate. Then, the protein was quantified and subjected to Western blotting using an anti-pHSL antibody (Cell Signaling Technology (CST), USA).

perilipin1 = test: RT-PCR of lipolysis-related gene perilipin1 in adipocytes; settings: 3T3-L1 adipocytes, 5 μM and 50 μM peptide, 72 hours, GAPDH internal control
Experimental: as §2, §3

UCP1 [2] = test: Western blot of thermogenesis-related protein UCP1 in adipocytes; settings: 3T3-L1 adipocytes, 5 μM and 50 μM peptide, 24 hours
Experimental: as §1, §5

Tbx1 = test: RT-PCR of thermogenesis-related gene Tbx1 in adipocytes; settings: 3T3-L1 adipocytes, 5 μM and 50 μM peptide, 72 hours, GAPDH internal control
Experimental: as §2, §4

FGF21 = test: RT-PCR of thermogenesis-related gene FGF21 in adipocytes; settings: 3T3-L1 adipocytes, 5 μM and 50 μM peptide, 72 hours, GAPDH internal control
Experimental: as §2, §4

HSL = test: RT-PCR of lipolysis-related gene HSL in adipocytes; settings: 3T3-L1 adipocytes, 5 μM and 50 μM peptide, 72 hours, GAPDH internal control
Experimental: as §2, §3

DYNMKWIHVY [SEQ ID NO: 1]
amount of glycerol released (3T3-L1 adipocytes): increased in a concentration-dependent manner | mRNA expression of ATGL gene (ATGL): increased | mRNA expression of PGC1α gene (PGC1α): increased | expression of PRDM16 protein (PRDM16): increased | mRNA expression of UCP1 gene (UCP1 [1]): increased | phosphorylation of HSL protein (pHSL): increased | mRNA expression of perilipin1 gene (perilipin1): increased | expression of UCP1 protein (UCP1 [2]): increased | mRNA expression of Tbx1 gene (Tbx1): increased | mRNA expression of FGF21 gene (FGF21): increased | mRNA expression of HSL gene (HSL): increased
